# Measurements as given in patent US20130053410A1, “SUBSTITUTED HETEROARYL 2',3',7',7A'-TETRAHYDROSPIRO[PYRROLE-3,6'-PYRROLO[1,2-C]IMIDAZOLE]-1',2(1H,5'H)-DIONE” (priority 2011, published 2013).
# Target: interaction between p53 and MDM2 proteins (recombinant GST-tagged MDM2, biotinylated p53 peptide) (Homo sapiens, UniProt Q00987)
# Assay: HTRF assay of inhibition of the p53-MDM2 interaction
# Type: binding
# Settings: bsa: 0.02%
# Experimental: The ability of the compounds to inhibit the interaction between p53 and MDM2 proteins was measured by an HTRF (homogeneous time-resolved fluorescence) assay in which recombinant GST-tagged MDM2 binds to a peptide that resembles the MDM2-interacting region of p53. Binding of GST-MDM2 protein and p53-peptide (biotinylated on its N-terminal end) is registered by the FRET (fluorescence resonance energy transfer) between Europium (Eu)-labeled anti-GST antibody and streptavidin-conjugated Allophycocyanin (APC).
# […] Add 10 uL diluted compounds (1:5 dilution in reaction buffer) to each well, mix by shaking. Add 20 uL biotinylated p53 peptide (180 nM working solution) in reaction buffer to each well and mix on shaker. Incubate at 37° C. for 1 h. Add 20 uL streptavidin-APC and Eu-anti-GST antibody mixture (6 nM Eu-anti-GST and 60 nM streptavidin-APC working solution) in TBS buffer with 0.2% BSA, shake at room temperature for 30 minutes and read using a TRF-capable plate reader at 665 and 615 nm (Victor 5, Perkin ElmerWallac). If not specified, the reagents were purchased from Sigma Chemical Co.
# Chain of interaction between p53 and MDM2 proteins (recombinant GST-tagged MDM2, biotinylated p53 peptide) (Q00987 whole entry): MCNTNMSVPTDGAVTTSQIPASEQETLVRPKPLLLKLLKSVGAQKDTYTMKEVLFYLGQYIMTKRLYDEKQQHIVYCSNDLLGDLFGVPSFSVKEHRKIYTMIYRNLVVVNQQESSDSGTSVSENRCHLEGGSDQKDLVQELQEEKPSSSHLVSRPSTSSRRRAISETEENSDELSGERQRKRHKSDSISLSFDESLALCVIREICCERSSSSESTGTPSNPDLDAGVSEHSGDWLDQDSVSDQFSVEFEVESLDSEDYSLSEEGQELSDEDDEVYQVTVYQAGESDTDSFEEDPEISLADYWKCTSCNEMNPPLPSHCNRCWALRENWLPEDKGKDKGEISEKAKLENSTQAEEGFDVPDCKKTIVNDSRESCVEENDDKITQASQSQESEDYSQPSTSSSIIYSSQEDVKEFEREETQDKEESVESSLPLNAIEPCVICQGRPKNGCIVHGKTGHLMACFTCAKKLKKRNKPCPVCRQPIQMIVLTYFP
row,Structure (SMILES),IC50 [nM]
1,"COc1cc(C(=O)O)ccc1N1CN2[C@@H](CC(C)(C)C)[C@@]3(C(=O)Nc4cc(C)ncc43)[C@@H](c3cccc(Cl)c3F)[C@@H]2C1=O (racemic) [Example 2, rac-4-((3′R,5S,7S,7aR)-7-(3-chloro-2-fluorophenyl)-6′-methyl-5-neopentyl-1,2′-dioxo-1′,2′,7,7a-tetrahydrospiro[pyrrolo[1,2-c]imidazole-6,3′-pyrrolo[3,2-c]pyridine]-2(1H,3H,5H)-yl)-3-methoxybenzoic acid]",102
2,"COc1cc(C(N)=O)ccc1N1CN2[C@@H](CC(C)(C)C)[C@@]3(C(=O)Nc4cc(C)ncc43)[C@@H](c3cccc(Cl)c3F)[C@@H]2C1=O (racemic) [Example 3a, rac-4-((3′R,5S,7S,7aR)-7-(3-chloro-2-fluorophenyl)-6′-methyl-5-neopentyl-1,2′-dioxo-1′,2′,7,7a-tetrahydrospiro[pyrrolo[1,2-c]imidazole-6,3′-pyrrolo[3,2-c]pyridine]-2(1H,3H,5H)-yl)-3-methoxybenzamide]",89.9
3,"COc1cc(C(N)=O)ccc1N1CN2[C@@H](CC(C)(C)C)[C@]3(C(=O)Nc4cc(C)ncc43)[C@@H](c3cccc(Cl)c3F)[C@@H]2C1=O (racemic) [Example 3b, rac-4-((3′S,5S,7S,7aR)-7-(3-chloro-2-fluorophenyl)-6′-methyl-5-neopentyl-1,2′-dioxo-1′,2′,7,7a-tetrahydrospiro[pyrrolo[1,2-c]imidazole-6,3′-pyrrolo[3,2-c]pyridine]-2(1H,3H,5H)-yl)-3-methoxybenzamide]",1160
4,"COc1cc(C(=O)O)ccc1N1CN2[C@@H](CC(C)(C)C)[C@@]3(C(=O)Nc4ccncc43)[C@@H](c3cccc(Cl)c3F)[C@@H]2C1=O (racemic) [Example 5, rac-4-((3′R,5S,7S,7aR)-7-(3-chloro-2-fluorophenyl)-5-neopentyl-1,2′-dioxo-1′,2′,7,7a-tetrahydrospiro[pyrrolo[1,2-c]imidazole-6,3′-pyrrolo[3,2-c]pyridine]-2(1H,3H,5H)-yl)-3-methoxybenzoic acid]",797
5,"COc1cc2c(cn1)[C@@]1(C(=O)N2)[C@H](CC(C)(C)C)N2CN(c3ccc(C(=O)O)cc3OC)C(=O)[C@H]2[C@@H]1c1cccc(Cl)c1F (racemic) [Example 6, rac-4-((3′R,5S,7S,7aR)-7-(3-chloro-2-fluorophenyl)-6′-methoxy-5-neopentyl-1,2′-dioxo-1′,2′,7,7a-tetrahydrospiro[pyrrolo[1,2-c]imidazole-6,3′-pyrrolo[3,2-c]pyridine]-2(1H,3H,5H)-yl)-3-methoxybenzoic acid]",23
6,"COc1cc2c(cn1)[C@@]1(C(=O)N2)[C@H](CC(C)(C)C)N2CN(c3ccc(C(N)=O)cc3OC)C(=O)[C@H]2[C@@H]1c1cccc(Cl)c1F (racemic) [Example 7, rac-4-((3′R,5S,7S,7aR)-7-(3-chloro-2-fluorophenyl)-6′-methoxy-5-neopentyl-1,2′-dioxo-1′,2′,7,7a-tetrahydrospiro[pyrrolo[1,2-c]imidazole-6,3′-pyrrolo[3,2-c]pyridine]-2(1H,3H,5H)-yl)-3-methoxybenzamide]",15
7,"COc1cc(C(=O)O)ccc1N1CN2[C@@H](CC(C)(C)C)[C@@]3(C(=O)Nc4nc(Cl)ccc43)[C@@H](c3cccc(Cl)c3F)[C@@H]2C1=O (racemic) [Example 9, rac-4-((3′R,5S,7S,7aR)-6′-chloro-7-(3-chloro-2-fluorophenyl)-5-neopentyl-1,2′-dioxo-1′,2′,7,7a-tetrahydrospiro[pyrrolo[1,2-c]imidazole-6,3′-pyrrolo[2,3-b]pyridine]-2(1H,3H,5H)-yl)-3-methoxybenzoic acid]",15
8,"COc1cc(C(N)=O)ccc1N1CN2[C@@H](CC(C)(C)C)[C@@]3(C(=O)Nc4nc(Cl)ccc43)[C@@H](c3cccc(Cl)c3F)[C@@H]2C1=O (racemic) [Example 10, rac-4-((3′R,5S,7S,7aR)-6′-chloro-7-(3-chloro-2-fluorophenyl)-5-neopentyl-1,2′-dioxo-1′,2′,7,7a-tetrahydrospiro[pyrrolo[1,2-c]imidazole-6,3′-pyrrolo[2,3-b]pyridine]-2(1H,3H,5H)-yl)-3-methoxybenzamide]",19.3
9,"COc1cc(C(=O)O)ccc1N1CN2[C@@H](CC(C)(C)C)[C@@]3(C(=O)Nc4ncccc43)[C@@H](c3cccc(Cl)c3F)[C@@H]2C1=O (racemic) [Example 15, rac-4-((3′R,5S,7S,7aR)-7-(3-chloro-2-fluorophenyl)-5-neopentyl-1,2′-dioxo-1′,2′,7,7a-tetrahydrospiro[pyrrolo[1,2-c]imidazole-6,3′-pyrrolo[2,3-b]pyridine]-2(1H,3H,5H)-yl)-3-methoxybenzoic acid]",96
10,"COc1cc(C(=O)O)ccc1N1CN2[C@@H](CC(C)(C)C)[C@@]3(C(=O)Nc4cc(C)cnc43)[C@@H](c3cccc(Cl)c3F)[C@@H]2C1=O (racemic) [Example 16, rac-4-((3′S,5S,7S,7aR)-7-(3-chloro-2-fluorophenyl)-6′-methyl-5-neopentyl-1,2′-dioxo-1′,2′,7,7a-tetrahydrospiro[pyrrolo[1,2-c]imidazole-6,3′-pyrrolo[3,2-b]pyridine]-2(1H,3H,5H)-yl)-3-methoxybenzoic acid]",21.8
11,"COc1cc(C(N)=O)ccc1N1CN2[C@@H](CC(C)(C)C)[C@@]3(C(=O)Nc4cc(Cl)ncc43)[C@@H](c3cccc(Cl)c3F)[C@@H]2C1=O [Example 1, 4-((3′R,5S,7S,7aR)-6′-chloro-7-(3-chloro-2-fluorophenyl)-5-neopentyl-1,2′-dioxo-1′,2′,7,7a-tetrahydrospiro[pyrrolo[1,2-c]imidazole-6,3′-pyrrolo[3,2-c]pyridine]-2(1H,3H,5H)-yl)-3-methoxybenzamide]",6.8
12,"COc1cc(C(N)=O)ccc1N1C(=O)[C@H]2[C@H](c3cccc(Cl)c3F)[C@]3(C(=O)Nc4cc(Cl)ncc43)[C@H](CC(C)(C)C)N2[C@@H]1C [Example 11, 4-((3S,3′R,5S,7S,7aR)-6′-chloro-7-(3-chloro-2-fluorophenyl)-3-methyl-5-neopentyl-1,2′-dioxo-1′,2′,7,7a-tetrahydrospiro[pyrrolo[1,2-c]imidazole-6,3′-pyrrolo[3,2-c]pyridine]-2(1H,3H,5H)-yl)-3-methoxybenzamide]",7.5
13,"CC[C@@H]1N(c2ccc(C(N)=O)cc2OC)C(=O)[C@H]2[C@H](c3cccc(Cl)c3F)[C@]3(C(=O)Nc4cc(Cl)ncc43)[C@H](CC(C)(C)C)N12 [Example 12, 4-((3S,3′R,5S,7S,7aR)-6′-chloro-7-(3-chloro-2-fluorophenyl)-3-ethyl-5-neopentyl-1,2′-dioxo-1′,2′,7,7a-tetrahydrospiro[pyrrolo[1,2-c]imidazole-6,3′-pyrrolo[3,2-c]pyridine]-2(1H,3H,5H)-yl)-3-methoxybenzamide]",7
14,"COc1cc(C(N)=O)ccc1N1C(=O)[C@H]2[C@H](c3cccc(Cl)c3F)[C@]3(C(=O)Nc4cc(Cl)ncc43)[C@H](CC(C)(C)C)N2[C@@H]1CO [Example 13, 4-((3S,3′R,5S,7S,7aR)-6′-chloro-7-(3-chloro-2-fluorophenyl)-3-(hydroxymethyl)-5-neopentyl-1,2′-dioxo-1′,2′,7,7a-tetrahydrospiro[pyrrolo[1,2-c]imidazole-6,3′-pyrrolo[3,2-c]pyridine]-2(1H,3H,5H)-yl)-3-methoxybenzamide]",9.6
15,"COc1cc(C(N)=O)ccc1N1C(=O)[C@H]2[C@H](c3cccc(Cl)c3F)[C@]3(C(=O)Nc4cc(Cl)ncc43)[C@H](CC(C)(C)C)N2[C@@H]1CCC1CCOCC1 [Example 14, 4-((3S,3′R,5S,7S,7aR)-6′-chloro-7-(3-chloro-2-fluorophenyl)-5-neopentyl-1,2′-dioxo-3-(2-(tetrahydro-2H-pyran-4-yl)ethyl)-1′,2′,7,7a-tetrahydrospiro[pyrrolo[1,2-c]imidazole-6,3′-pyrrolo[3,2-c]pyridine]-2(1H,3H,5H)-yl)-3-methoxybenzamide]",7.5
